Test results from patent publication US12410123B2, “N-[8-(2-hydroxybenzoyl)amino]potassium octanoate crystal polymorph, and preparation method therefor and use thereof” (SCIWIND BIOSCIENCES CO., LTD., priority 2020, dated 2025).

Legend:
Type in all cases: physicochemical
[1] = Solid-state stability of PNAC crystal forms (storage; XRPD and HPLC)
Procedure: The third group was kept under the conditions of 25° C. and 60% relative humidity for 2 weeks to obtain a solid sample, and then the three groups of solid samples were respectively evaluated for physical and chemical stability by XRPD and HPLC assay.
The purity of main peak was calculated by normalization method.

[2] = Solution stability of different crystal forms of PNAC in aqueous solution (500 mg/mL); details: 500 mg/mL in purified water
Procedure: The stability differences between different salt forms and different crystal forms in aqueous solution under the condition of high concentration (500 mg/mL) were compared, and the results are shown in Table 5 (there is no difference in the dissolution and solution storage process of the samples of PNAC crystal forms I-IV).

[3] = Stability during preparation (grinding, tableting, airflow crushing; XRPD)
Source text: Three groups of solid samples were characterized by XRPD to evaluate their physical stability.

[4] = Airflow crushing (injection pressure 0.4 MPa, pulverization pressure 0.2 MPa)
[5] = solid, 60° C. for 24 h, 40° C. and 75% relative humidity for two weeks, 25° C. and 60% relative humidity for 2 weeks

| SMILES | crystal form after treatment (XRPD) ([1]; 25° C./60% RH, 2 W) | crystal form after treatment (XRPD) ([1]; 25° C./75% RH, 2 W) | crystal form after treatment (XRPD) ([1]; 60° C., 24 h) | storage time at which flocs began to appear in the solution ([2]; 4° C.) [h] | storage time at which flocs began to appear in the solution ([2]; room temperature) [h] | overall solid-state stability (conclusion from Table 15) [1] | change of crystal form after grinding, tableting and airflow crushing (XRPD) [3] | crystal form after treatment (XRPD) [3, 4] | crystal form after treatment (XRPD) ([3]; Manual grinding (10 min)) | crystal form after treatment (XRPD) ([3]; Tableting (pressure of 3 kN)) | crystal form after storage (XRPD) [1, 5] | relative purity (HPLC) after storage [1, 5] [%] |
| --- | --- | --- | --- | --- | --- | --- | --- | --- | --- | --- | --- | --- |
| O=C([O-])CCCCCCCNC(=O)c1ccccc1O.[K+] [crystal Form III, Potassium N-[8-(2-hydroxybenzoyl)amino]octanoate] | crystal Form II | crystal Form II | crystal Form I | – | – | – | – | – | – | – | – | – |
| O=C([O-])CCCCCCCNC(=O)c1ccccc1O.[Na+] [SNAC, monosodium N-[8-(2-hydroxybenzoyl)amino]octanoate] | – | – | – | 0.5 | 1 | – | – | – | – | – | – | – |
| O=C([O-])CCCCCCCNC(=O)c1ccccc1O.[K+] [crystal Form I, Potassium N-[8-(2-hydroxybenzoyl)amino]octanoate] | crystal Form II | crystal Form II | crystal Form I | – | – | very stable | does not change | crystal Form I | crystal Form I | crystal Form I | – | – |
| O=C([O-])CCCCCCCNC(=O)c1ccccc1O.[K+] [crystal Form II, Potassium N-[8-(2-hydroxybenzoyl)amino]octanoate] | crystal Form II | crystal Form II | crystal Form II | – | – | very stable | does not change | crystal Form II | crystal Form II | crystal Form II | the crystal form has not changed | 100 |
| O=C([O-])CCCCCCCNC(=O)c1ccccc1O.[K+] [crystal Form IV, Potassium N-[8-(2-hydroxybenzoyl)amino]octanoate] | crystal Form II | crystal Form II | crystal Form I | – | – | – | – | crystal Form IV | crystal Form IV | crystal Form IV | – | – |
